“Also recorded” adds a separate entry of the source.
What was measured:
[1] = system: human platelet-mediated thrombosis; assay: In vivo human thrombus formation in the VWF HA1 mice model (laser-induced injury); conditions: pretreated human platelets
Protocol: Constitutive or aberrant activation of the BCR signaling cascade has been implicated in the propagation and maintenance of a variety of B cell malignancies. […] J. Haematol. […] In fact, both Tec and BTK play an important role in the regulation of phospholipase Cγ2 (PLCγ2) downstream of the collagen receptor glycoprotein VI (GPVI) in human platelets. […] Biotechnol.
Injury to the vessel wall of arterioles ([…] diameter) was performed using a pulsed nitrogen dye laser (440 nm, Photonic Instruments) applied through a 20× water-immersion Olympus objective (LUMPlanFl, 0.5 numerical aperature (NA)) of a Zeiss Axiotech vario microscope. […] The extent of thrombus formation was assessed for 2 minutes after injury and the area (μm^2) of coverage determined (Image IQ, Andor Technology).
The BTK inhibitor-treated human platelets were fluorescently labeled and infused continuously through a catheter inserted into the femoral artery.

[2] = system: B cell receptor signals (CD69); assay: Whole blood B cell receptor signaling, anti-IgD stimulated CD69 on CD19+ B cells; assay type: cell-based; conditions: whole blood of four healthy donors, 2 hours incubation, anti-human IgD 18 hours
Protocol: Blood from four healthy donors was incubated for 2 hours with the compounds shown over a concentration range, and then stimulated with anti-human IgD [10 μg/mL] for 18 hours. The mean fluorescent intensity (MFI) of CD69 (and CD86, data not shown) on gated CD19+ B cells was measured by flow cytometry.

[3] = system: GPVI platelet aggregation; assay: GPVI (convulxin-induced) platelet aggregation; assay type: cell-based; conditions: human platelets
Protocol: GPVI platelet aggregation was measured for Formula (XVIII) and Formula XX-A (ibrutinib). Blood was obtained from untreated humans, and platelets were purified from […] by centrifugation. Cells were resuspended to a final concentration of 350,000/μL in buffer containing 145 mmol/L NaCl, 10 mmol/L HEPES, 0.5 mmol/L Na2HPO4, 5 mmol/L KCl, 2 mmol/L MgCl2, 1 mmol/L CaCl2, and 0.1% glucose, at pH 7.4. Stock solutions of […] were prepared on the day of experimentation and added to platelet suspensions 5 minutes (37° C., 1200 rpm) before the induction of aggregation. Aggregation was assessed with a Chronolog Lumi-Aggregometer (model 540 VS; Chronolog, Havertown, Pa.) and permitted to proceed for 6 minutes after the addition of agonist. The results are reported as maximum percent change in light transmittance from baseline with platelet buffer used as a reference.
In FIG. 126, the results of CVX-induced (250 ng/mL) human platelet aggregation results before and 15 minutes after administration of the BTK inhibitors to 6 healthy individuals are shown.

Raji cells = assay: Antibody-dependent NK cell-mediated cytotoxicity, chromium release assay; assay type: cell-based; conditions: 1 μM; chromium-labeled Raji cells, 4 hours, variable rituximab concentrations, effector:target ratio 25:1; FIG. 134

Structure (SMILES) | Effect on human platelet-mediated thrombus formation [1] | EC50 [2] [nM] | GPVI platelet aggregation [3] | antibody-dependent NK cell-mediated cytotoxicity (percent lysis of tumor cells) (Raji cells)
C=CC(=O)Nc1cccc(Nc2nc(Nc3ccc(OCCOC)cc3)ncc2F)c1 [CC-292, N-(3-((5-fluoro-2-((4-(2-methoxyethoxy)phenyl)amino)pyrimidin-4-yl)amino)phenyl)acrylamide, reference compound] | interfere with thrombus formation; also recorded: showed an effect similar to Formula XX-A (ibrutinib) | 121 | – | –
C=CC(=O)N1CCC[C@@H](n2nc(-c3ccc(Oc4ccccc4)cc3)c3c(N)ncnc32)C1 [ibrutinib, reference compound] | – | – | significantly inhibits GPVI platelet aggregation | antagonizes

Reference: patent publication US20170224819A1, “Therapeutic Combinations of a BTK Inhibitor, a PI3K Inhibitor, a JAK-2 Inhibitor, and/or a CDK 4/6 Inhibitor” (Acerta Pharma B.V., priority 2014, published 2017)
